Reference: the supplement of paper PMC10733146

Tests used:
Experiment in all cases: viability relative to DMSO control (fraction); higher = less drug effect (more viable cells)
Details in all cases: 48 h
[1] = tested on: primary ALL patient cells (S088)
Outline: (§1)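 Viability was quantified by CellTiter-Glo luminescence and related to the median of 16 inner DMSO wells. Before that, primary mononuclear tumour cells, fresh or cryopreserved and Ficoll-isolated from blood or bone marrow or prepared from processed lymph node, were plated at 4 × 10^4 cells per well in 384-well plates containing pre-plated compounds at five concentrations, one well each. Plates were incubated in RPMI-1640 with penicillin/streptomycin, L-glutamine and human serum at 37 °C and 5% CO2 for 48 h.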

[2] = tested on: primary BL patient cells (S005)
Outline: as §1

[3] = tested on: primary AML patient cells (S012)
Outline: as §1

[4] = tested on: primary MCL patient cells (S053)
Outline: as §1

[5] = tested on: primary AML patient cells (S060)
Outline: as §1

[6] = tested on: primary B-PLL patient cells (S016)
Outline: as §1

[7] = tested on: primary AML patient cells (S072)
Outline: as §1

[8] = tested on: primary DLBCL patient cells (S082)
Outline: as §1

[9] = tested on: primary AML patient cells (S009)
Outline: as §1

[10] = tested on: primary AML patient cells (S056)
Outline: as §1

[11] = tested on: primary AML patient cells (S071)
Outline: as §1

[12] = tested on: primary FL patient cells (S087)
Outline: as §1

[13] = tested on: primary AML patient cells (S085)
Outline: as §1

[14] = tested on: primary MCL patient cells (S041)
Outline: as §1

[15] = tested on: primary CLL patient cells (S031)
Outline: as §1

[16] = tested on: primary CLL patient cells (S043)
Outline: as §1

[17] = tested on: primary AML patient cells (S079)
Outline: as §1

[18] = tested on: primary MCL patient cells (S063)
Outline: as §1

[19] = tested on: primary AML patient cells (S017)
Outline: as §1

`Cc1sc2c(c1C)C(c1ccc(Cl)cc1)=N[C@@H](CC(=O)Nc1ccc(O)cc1)c1nnc(C)n1-2` [OTX015] gave a viability ([1]; 0.016 µM) of 0.862, a viability ([1]; 0.08 µM) of 0.726 and a viability ([1]; 0.4 µM) of 0.448. The viability ([1]; 2 µM) was 0.394, the viability ([1]; 10 µM) was 0.325 and the viability ([2]; 0.016 µM) was 0.977. For the same compound, the viability ([2]; 0.08 µM) was 0.911, the viability ([2]; 0.4 µM) was 0.818 and the viability ([2]; 2 µM) was 0.758. It also gave a viability ([2]; 10 µM) of 0.802, a viability ([3]; 0.016 µM) of 0.989 and a viability ([3]; 0.08 µM) of 0.84. The viability ([3]; 0.4 µM) was 0.565, the viability ([3]; 2 µM) was 0.379 and the viability ([3]; 10 µM) was 0.267. For the same compound, the viability ([4]; 0.016 µM) was 0.972, the viability ([4]; 0.08 µM) was 0.949 and the viability ([4]; 0.4 µM) was 0.689. The viability ([4]; 2 µM) was 0.546, the viability ([4]; 10 µM) was 0.477 and the viability ([5]; 0.016 µM) was 1.01. It also gave a viability ([5]; 0.08 µM) of 1.03, a viability ([5]; 0.4 µM) of 0.775 and a viability ([5]; 2 µM) of 0.501. It also gave a viability ([5]; 10 µM) of 0.344, a viability ([6]; 0.016 µM) of 1.06 and a viability ([6]; 0.08 µM) of 1.15. It also gave a viability ([6]; 0.4 µM) of 0.891, a viability ([6]; 2 µM) of 0.711 and a viability ([6]; 10 µM) of 0.687. The viability ([7]; 0.016 µM) was 0.806, the viability ([7]; 0.08 µM) was 0.826 and the viability ([7]; 0.4 µM) was 0.604. It also gave a viability ([7]; 2 µM) of 0.375, a viability ([7]; 10 µM) of 0.364 and a viability ([8]; 0.016 µM) of 0.872. The viability ([8]; 0.08 µM) was 0.674, the viability ([8]; 0.4 µM) was 0.244 and the viability ([8]; 2 µM) was 0.116. The viability ([8]; 10 µM) was 0.0851, the viability ([9]; 0.016 µM) was 0.859 and the viability ([9]; 0.08 µM) was 0.752. For the same compound, the viability ([9]; 0.4 µM) was 0.6, the viability ([9]; 2 µM) was 0.489 and the viability ([9]; 10 µM) was 0.457. It also gave a viability ([10]; 0.016 µM) of 0.932, a viability ([10]; 0.08 µM) of 0.885 and a viability ([10]; 0.4 µM) of 0.631. The viability ([10]; 2 µM) was 0.255, the viability ([10]; 10 µM) was 0.235 and the viability ([11]; 0.016 µM) was 0.988. It also gave a viability ([11]; 0.08 µM) of 1.08, a viability ([11]; 0.4 µM) of 0.994 and a viability ([11]; 2 µM) of 0.829. The viability ([11]; 10 µM) was 0.722, the viability ([12]; 0.016 µM) was 1.02 and the viability ([12]; 0.08 µM) was 1.01. It also gave a viability ([12]; 0.4 µM) of 0.913, a viability ([12]; 2 µM) of 0.866 and a viability ([12]; 10 µM) of 0.805. For the same compound, the viability ([13]; 0.016 µM) was 0.861, the viability ([13]; 0.08 µM) was 0.614 and the viability ([13]; 0.4 µM) was 0.312. For the same compound, the viability ([13]; 2 µM) was 0.191, the viability ([13]; 10 µM) was 0.178 and the viability ([14]; 0.016 µM) was 1.01. It also gave a viability ([14]; 0.08 µM) of 1.01, a viability ([14]; 0.4 µM) of 0.866 and a viability ([14]; 2 µM) of 0.806. The viability ([14]; 10 µM) was 0.708, the viability ([15]; 0.016 µM) was 0.983 and the viability ([15]; 0.08 µM) was 0.927. It also gave a viability ([15]; 0.4 µM) of 0.77, a viability ([15]; 2 µM) of 0.52 and a viability ([15]; 10 µM) of 0.405. The viability ([16]; 0.016 µM) was 0.959, the viability ([16]; 0.08 µM) was 0.963 and the viability ([16]; 0.4 µM) was 0.9. It also gave a viability ([16]; 2 µM) of 0.76, a viability ([16]; 10 µM) of 0.762 and a viability ([17]; 0.016 µM) of 0.812. The viability ([17]; 0.08 µM) was 0.757, the viability ([17]; 0.4 µM) was 0.568 and the viability ([17]; 2 µM) was 0.44. The viability ([17]; 10 µM) was 0.403, the viability ([18]; 0.016 µM) was 1.14 and the viability ([18]; 0.08 µM) was 1.14. The viability ([18]; 0.4 µM) was 0.91, the viability ([18]; 2 µM) was 0.654 and the viability ([18]; 10 µM) was 0.566. For the same compound, the viability ([19]; 0.016 µM) was 0.96, the viability ([19]; 0.08 µM) was 0.937 and the viability ([19]; 0.4 µM) was 0.573. It also gave a viability ([19]; 2 µM) of 0.391 and a viability ([19]; 10 µM) of 0.354.
Work on `CCN1CCN(Cc2ccc(Nc3ncc(F)c(-c4cc(F)c5nc(C)n(C(C)C)c5c4)n3)nc2)CC1` yielded a viability ([1]; 0.024 µM) of 0.616, a viability ([1]; 0.12 µM) of 0.625 and a viability ([1]; 0.6 µM) of 0.517. The viability ([1]; 3 µM) was 0.169, the viability ([1]; 15 µM) was 0.012 and the viability ([2]; 0.024 µM) was 1.01. For the same compound, the viability ([2]; 0.12 µM) was 1.61, the viability ([2]; 0.6 µM) was 0.924 and the viability ([2]; 3 µM) was 0.725. The viability ([2]; 15 µM) was 0.374, the viability ([3]; 0.024 µM) was 1.11 and the viability ([3]; 0.12 µM) was 1.04. The viability ([3]; 0.6 µM) was 1.07, the viability ([3]; 3 µM) was 0.986 and the viability ([3]; 15 µM) was 0.902. For the same compound, the viability ([4]; 0.024 µM) was 0.896, the viability ([4]; 0.12 µM) was 0.737 and the viability ([4]; 0.6 µM) was 0.565. For the same compound, the viability ([4]; 3 µM) was 0.144, the viability ([4]; 15 µM) was 0.0105 and the viability ([5]; 0.024 µM) was 1.08. It also gave a viability ([5]; 0.12 µM) of 1.01, a viability ([5]; 0.6 µM) of 0.946 and a viability ([5]; 3 µM) of 0.534. The viability ([5]; 15 µM) was 0.112, the viability ([6]; 0.024 µM) was 0.997 and the viability ([6]; 0.12 µM) was 1.09. The viability ([6]; 0.6 µM) was 0.984, the viability ([6]; 3 µM) was 0.505 and the viability ([6]; 15 µM) was 0.0112. For the same compound, the viability ([7]; 0.024 µM) was 0.893, the viability ([7]; 0.12 µM) was 1.03 and the viability ([7]; 0.6 µM) was 0.73. The viability ([7]; 3 µM) was 0.251, the viability ([7]; 15 µM) was 0.0132 and the viability ([8]; 0.024 µM) was 0.915. The viability ([8]; 0.12 µM) was 1.01, the viability ([8]; 0.6 µM) was 1.19 and the viability ([8]; 3 µM) was 0.543. For the same compound, the viability ([8]; 15 µM) was 0.0123, the viability ([9]; 0.024 µM) was 1.05 and the viability ([9]; 0.12 µM) was 0.955. It also gave a viability ([9]; 0.6 µM) of 1.03, a viability ([9]; 3 µM) of 0.451 and a viability ([9]; 15 µM) of 0.0338. For the same compound, the viability ([10]; 0.024 µM) was 0.703, the viability ([10]; 0.12 µM) was 0.546 and the viability ([10]; 0.6 µM) was 0.444. The viability ([10]; 3 µM) was 0.136, the viability ([10]; 15 µM) was 0.0316 and the viability ([11]; 0.024 µM) was 0.728. For the same compound, the viability ([11]; 0.12 µM) was 0.533, the viability ([11]; 0.6 µM) was 0.39 and the viability ([11]; 3 µM) was 0.0958. For the same compound, the viability ([11]; 15 µM) was 0.0535, the viability ([12]; 0.024 µM) was 1.01 and the viability ([12]; 0.12 µM) was 0.934. The viability ([12]; 0.6 µM) was 0.962, the viability ([12]; 3 µM) was 0.763 and the viability ([12]; 15 µM) was 0.0109. For the same compound, the viability ([13]; 0.024 µM) was 0.895, the viability ([13]; 0.12 µM) was 1.01 and the viability ([13]; 0.6 µM) was 1.22. The viability ([13]; 3 µM) was 0.265, the viability ([13]; 15 µM) was 0.0115 and the viability ([14]; 0.024 µM) was 0.938. The viability ([14]; 0.12 µM) was 0.812, the viability ([14]; 0.6 µM) was 0.757 and the viability ([14]; 3 µM) was 0.0785. It also gave a viability ([14]; 15 µM) of 0.00539, a viability ([15]; 0.024 µM) of 0.841 and a viability ([15]; 0.12 µM) of 0.752. The viability ([15]; 0.6 µM) was 0.771, the viability ([15]; 3 µM) was 0.238 and the viability ([15]; 15 µM) was 0.00593. For the same compound, the viability ([16]; 0.024 µM) was 0.893, the viability ([16]; 0.12 µM) was 1.05 and the viability ([16]; 0.6 µM) was 0.936. The viability ([16]; 3 µM) was 0.58, the viability ([16]; 15 µM) was 0.24 and the viability ([17]; 0.024 µM) was 0.969. For the same compound, the viability ([17]; 0.12 µM) was 1.07, the viability ([17]; 0.6 µM) was 1.03 and the viability ([17]; 3 µM) was 0.598. The viability ([17]; 15 µM) was 0.0143, the viability ([18]; 0.024 µM) was 1.08 and the viability ([18]; 0.12 µM) was 0.99. It also gave a viability ([18]; 0.6 µM) of 0.951, a viability ([18]; 3 µM) of 0.605 and a viability ([18]; 15 µM) of 0.00904. For the same compound, the viability ([19]; 0.024 µM) was 1.01, the viability ([19]; 0.12 µM) was 1.14 and the viability ([19]; 0.6 µM) was 1.1. For the same compound, the viability ([19]; 3 µM) was 0.73 and the viability ([19]; 15 µM) was 0.179.
